# Results reported in patent US10927123B2, “Modulators of the beta-3 adrenergic receptor useful for the treatment or prevention of disorders related thereto” (Arena Pharmaceuticals, Inc., priority 2016, dated 2021).
# Target: Beta-3 Adrenergic Receptor (Homo sapiens (Human), UniProt P13945)
# Experiment: HTRF cAMP antagonist assay (IC50 determination)
# Assay type: cell-based
# Conditions: CHO-K1 cells stably expressing recombinant receptor; antagonism of isoproterenol at EC90; cAMP readout
# Procedure, shortened: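 CHO-K1 cells stably expressing the recombinant receptor were preincubated with compound (10-point, 5-fold dilutions; top final typically 10 or 100 μM) in PBS with 1 mM IBMX, then stimulated with isoproterenol at its EC90 for 1 h at room temperature. cAMP was read by HTRF against an on-plate standard curve.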
# Sequence of Beta-3 Adrenergic Receptor (P13945 whole entry, species assumed): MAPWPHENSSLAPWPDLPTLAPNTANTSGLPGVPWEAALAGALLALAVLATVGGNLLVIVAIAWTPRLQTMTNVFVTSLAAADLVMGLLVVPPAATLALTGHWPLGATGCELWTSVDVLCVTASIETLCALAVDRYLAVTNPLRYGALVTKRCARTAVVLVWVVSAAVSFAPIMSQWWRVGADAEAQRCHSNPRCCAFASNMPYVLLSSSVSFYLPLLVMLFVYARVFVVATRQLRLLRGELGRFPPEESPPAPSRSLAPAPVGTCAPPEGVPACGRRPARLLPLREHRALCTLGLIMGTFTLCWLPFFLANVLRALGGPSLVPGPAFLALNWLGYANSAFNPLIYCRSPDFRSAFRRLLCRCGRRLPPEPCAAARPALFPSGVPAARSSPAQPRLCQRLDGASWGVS
row,Compound,IC50
1,"COCS(=O)(=O)c1cccc(OC[C@@H](O)CN[C@H]2COC3(CCN(S(=O)(=O)c4cnc5ccccc5c4)CC3)C2)c1 [Compound 141, (S)-1-(3-(methoxymethylsulfonyl)phenoxy)-3-((R)-8-(quinolin-3-ylsulfonyl)-1-oxa-8-azaspiro[4.5]decan-3-ylamino)propan-2-ol]",11.6 nM
2,"NC(=O)CCS(=O)(=O)c1cccc(OC[C@@H](O)CN[C@H]2COC3(CCN(S(=O)(=O)c4cnc5ccccc5c4)CC3)C2)c1 [Compound 142, 3-(3-((S)-2-hydroxy-3-((R)-8-(quinolin-3-ylsulfonyl)-1-oxa-8-azaspiro[4.5]decan-3-ylamino)propoxy)phenylsulfonyl)propanamide]",106 nM
3,"O=S(=O)(c1cccc(OC[C@@H](O)CN[C@H]2COC3(CCN(S(=O)(=O)c4ccc5ncccc5c4)CC3)C2)c1)C1CC1 [Compound 143, (S)-1-(3-(cyclopropylsulfonyl)phenoxy)-3-((R)-8-(quinolin-6-ylsulfonyl)-1-oxa-8-azaspiro[4.5]decan-3-ylamino)propan-2-ol]",13.2 nM
4,"O=S(=O)(c1cccc(OC[C@@H](O)CN[C@H]2COC3(CCN(S(=O)(=O)c4cnc5ccccc5c4)CC3)C2)c1)C1CC1 [Compound 144, (S)-1-(3-(cyclopropylsulfonyl)phenoxy)-3-((R)-8-(quinolin-3-ylsulfonyl)-1-oxa-8-azaspiro[4.5]decan-3-ylamino)propan-2-ol]",7.77 nM
5,"CCOC(=O)C(C)(C)S(=O)(=O)c1cccc(OC[C@@H](O)CN[C@H]2COC3(CCN(S(=O)(=O)c4cnc5ccccc5c4)CC3)C2)c1 [Compound 145, ethyl 2-(3-((S)-2-hydroxy-3-((R)-8-(quinolin-3-ylsulfonyl)-1-oxa-8-azaspiro[4.5]decan-3-ylamino)propoxy)phenylsulfonyl)-2-methylpropanoate]",81.9 nM
6,"O=S(=O)(c1cccc(OC[C@@H](O)CN[C@H]2COC3(CCN(S(=O)(=O)c4cnc5ccccc5c4)CC3)C2)c1)C1CC(O)C1 (stereo partly drawn) [Compound 146, 3-(3-((S)-2-hydroxy-3-((R)-8-(quinolin-3-ylsulfonyl)-1-oxa-8-azaspiro[4.5]decan-3-ylamino)propoxy)phenylsulfonyl)cyclobutanol]",104 nM
7,"O=S(=O)(c1ccc2ncccc2c1)N1CCC2(CC1)C[C@@H](NC[C@H](O)COc1cccc(S(=O)(=O)C3(CO)CC3)c1)CO2 [Compound 147, (S)-1-(3-(1-(hydroxymethyl)cyclopropylsulfonyl)phenoxy)-3-((R)-8-(quinolin-6-ylsulfonyl)-1-oxa-8-azaspiro[4.5]decan-3-ylamino)propan-2-ol]",53.3 nM
8,"O=S(=O)(c1ccc2ncccc2c1)N1CCC2(CC1)C[C@@H](NC[C@H](O)COc1cccc(S(=O)(=O)C(F)(F)CO)c1)CO2 [Compound 148, (S)-1-(3-(1,1-difluoro-2-hydroxyethylsulfonyl)phenoxy)-3-((R)-8-(quinolin-6-ylsulfonyl)-1-oxa-8-azaspiro[4.5]decan-3-ylamino)propan-2-ol]",21.8 nM
9,"COCCCS(=O)(=O)c1cccc(OC[C@@H](O)CN[C@H]2COC3(CCN(S(=O)(=O)c4cnc5ccccc5c4)CC3)C2)c1 [Compound 149, (S)-1-(3-(3-methoxypropylsulfonyl)phenoxy)-3-((R)-8-(quinolin-3-ylsulfonyl)-1-oxa-8-azaspiro[4.5]decan-3-ylamino)propan-2-ol]",97.3 nM
10,"CN1CCOc2ncc(S(=O)(=O)N3CCC4(CC3)C[C@@H](NC[C@H](O)COc3cccc(S(=O)(=O)CCCO)c3)CO4)cc21 [Compound 150, 3-(3-((S)-2-hydroxy-3-((R)-8-(1-methyl-2,3-dihydro-1H-pyrido[2,3-b][1,4]oxazin-7-ylsulfonyl)-1-oxa-8-azaspiro[4.5]decan-3-ylamino)propoxy)phenylsulfonyl)propan-1-ol]",227 nM
11,"CN1CCOc2ncc(S(=O)(=O)N3CCC4(CC3)C[C@@H](NC[C@H](O)COc3cccc(S(=O)(=O)CCO)c3)CO4)cc21 [Compound 151, (S)-1-(3-(2-hydroxyethylsulfonyl)phenoxy)-3-((R)-8-(1-methyl-2,3-dihydro-1H-pyrido[2,3-b][1,4]oxazin-7-ylsulfonyl)-1-oxa-8-azaspiro[4.5]decan-3-ylamino)propan-2-ol]",40.8 nM

# Other lines, results leading:
row,IC50,Compound
1,24.7 nM,"CN1CCOc2ncc(S(=O)(=O)N3CCC4(CC3)C[C@@H](NC[C@H](O)COc3cccc(S(C)(=O)=O)c3)CO4)cc21 [Compound 152, (S)-1-((R)-8-(1-methyl-2,3-dihydro-1H-pyrido[2,3-b][1,4]oxazin-7-ylsulfonyl)-1-oxa-8-azaspiro[4.5]decan-3-ylamino)-3-(3-(methylsulfonyl)phenoxy)propan-2-ol]"
2,18.8 nM,"CC(C)S(=O)(=O)c1cccc(OC[C@@H](O)CN[C@H]2COC3(CCN(S(=O)(=O)c4cnc5c(c4)N(C)CCO5)CC3)C2)c1 [Compound 153, (S)-1-(3-(isopropylsulfonyl)phenoxy)-3-((R)-8-(1-methyl-2,3-dihydro-1H-pyrido[2,3-b][1,4]oxazin-7-ylsulfonyl)-1-oxa-8-azaspiro[4.5]decan-3-ylamino)propan-2-ol]"
3,48.2 nM,"CN1CCOc2ncc(S(=O)(=O)N3CCC4(CC3)C[C@@H](NC[C@H](O)COc3cccc(S(=O)(=O)C5(CO)CC5)c3)CO4)cc21 [Compound 155, (S)-1-(3-(1-(hydroxymethyl)cyclopropylsulfonyl)phenoxy)-3-((R)-8-(1-methyl-2,3-dihydro-1H-pyrido[2,3-b][1,4]oxazin-7-ylsulfonyl)-1-oxa-8-azaspiro[4.5]decan-3-ylamino)propan-2-ol]"
4,24.8 nM,"CN1CCOc2ncc(S(=O)(=O)N3CCC4(CC3)C[C@@H](NC[C@H](O)COc3cccc(S(=O)(=O)C(F)(F)CO)c3)CO4)cc21 [Compound 156, (S)-1-(3-(1,1-difluoro-2-hydroxyethylsulfonyl)phenoxy)-3-((R)-8-(1-methyl-2,3-dihydro-1H-pyrido[2,3-b][1,4]oxazin-7-ylsulfonyl)-1-oxa-8-azaspiro[4.5]decan-3-ylamino)propan-2-ol]"
5,25.7 nM,"NCc1ccc(-c2cccc(S(=O)(=O)N3CCC4(CC3)C[C@@H](NC[C@H](O)COc3cccc(S(=O)(=O)C5(CO)CC5)c3)CO4)c2)cc1 [Compound 157, (S)-1-((R)-8-(4′-(aminomethyl)biphenyl-3-ylsulfonyl)-1-oxa-8-azaspiro[4.5]decan-3-ylamino)-3-(3-(1-(hydroxymethyl)cyclopropylsulfonyl)phenoxy)propan-2-ol]"
6,27.3 nM,"CCOc1ccc(-c2ccc(CN)cc2)cc1S(=O)(=O)N1CCC2(CC1)C[C@@H](NC[C@H](O)COc1cccc(S(=O)(=O)C3(CO)CC3)c1)CO2 [Compound 158, (S)-1-((R)-8-(4′-(aminomethyl)-4-ethoxybiphenyl-3-ylsulfonyl)-1-oxa-8-azaspiro[4.5]decan-3-ylamino)-3-(3-(1-(hydroxymethyl)cyclopropylsulfonyl)phenoxy)propan-2-ol]"
7,178 nM,"CN1CCOc2ncc(S(=O)(=O)N3CCC4(CC3)C[C@@H](NC[C@H](O)COc3cccc(S(=O)(=O)CC(N)=O)c3)CO4)cc21 [Compound 159, 2-(3-((S)-2-hydroxy-3-((R)-8-(1-methyl-2,3-dihydro-1H-pyrido[2,3-b][1,4]oxazin-7-ylsulfonyl)-1-oxa-8-azaspiro[4.5]decan-3-ylamino)propoxy)phenylsulfonyl)acetamide]"
8,11.6 nM,"CCOc1ccc(-c2ccc(CN)cc2)cc1S(=O)(=O)N1CCC2(CC1)C[C@H](NC[C@H](O)COc1cccc(S(=O)(=O)C3CC3)c1)CO2 [Compound 160, (S)-1-((S)-8-(4′-(aminomethyl)-4-ethoxybiphenyl-3-ylsulfonyl)-1-oxa-8-azaspiro[4.5]decan-3-ylamino)-3-(3-(cyclopropylsulfonyl)phenoxy)propan-2-ol]"
9,21.1 nM,"CCOc1ccc(-c2ccc(CN)cc2)cc1S(=O)(=O)N1CCC2(CC1)C[C@@H](NC[C@H](O)COc1cccc(S(=O)(=O)C(F)(F)CO)c1)CO2 [Compound 161, (S)-1-((R)-8-(4′-(aminomethyl)-4-ethoxybiphenyl-3-ylsulfonyl)-1-oxa-8-azaspiro[4.5]decan-3-ylamino)-3-(3-(1,1-difluoro-2-hydroxyethylsulfonyl)phenoxy)propan-2-ol]"
10,29.5 nM,"NCc1ccc(-c2ccc(F)c(S(=O)(=O)N3CCC4(CC3)C[C@H](NC[C@H](O)COc3cccc(S(=O)(=O)C5(CO)CC5)c3)CO4)c2)cc1 [Compound 162, (S)-1-((S)-8-(4′-(aminomethyl)-4-fluorobiphenyl-3-ylsulfonyl)-1-oxa-8-azaspiro[4.5]decan-3-ylamino)-3-(3-(1-(hydroxymethyl)cyclopropylsulfonyl)phenoxy)propan-2-ol]"
11,27.7 nM,"NCc1ccc(-c2cccc(S(=O)(=O)N3CCC4(CC3)C[C@H](NC[C@H](O)COc3cccc(S(=O)(=O)C5(CO)CC5)c3)CO4)c2)cc1 [Compound 164, (S)-1-((S)-8-(4′-(aminomethyl)biphenyl-3-ylsulfonyl)-1-oxa-8-azaspiro[4.5]decan-3-ylamino)-3-(3-(1-(hydroxymethyl)cyclopropylsulfonyl)phenoxy)propan-2-ol]"
12,64.4 nM,"CCOc1ccc(-c2ccc(CNC(C)C)cc2)cc1S(=O)(=O)N1CCC2(CC1)C[C@@H](NC[C@H](O)COc1cccc(S(=O)(=O)C3(CO)CC3)c1)CO2 [Compound 165, (S)-1-((R)-8-(4-ethoxy-4′-((isopropylamino)methyl)biphenyl-3-ylsulfonyl)-1-oxa-8-azaspiro[4.5]decan-3-ylamino)-3-(3-(1-(hydroxymethyl)cyclopropylsulfonyl)phenoxy)propan-2-ol]"
13,51.2 nM,"CC(C)Oc1ccc(-c2ccc(CN)cc2)cc1S(=O)(=O)N1CCC2(CC1)C[C@H](NC[C@H](O)COc1cccc(S(=O)(=O)C3CC3)c1)CO2 [Compound 166, (S)-1-((S)-8-(4′-(aminomethyl)-4-isopropoxybiphenyl-3-ylsulfonyl)-1-oxa-8-azaspiro[4.5]decan-3-ylamino)-3-(3-(cyclopropylsulfonyl)phenoxy)propan-2-ol]"
